r1 (MRI longitudinal relaxivity) data for two compounds are collected here from patent publication US20150250902A1, “pH-RESPONSIVE GADOLINIUM NANOPARTICLE CONJUGATES AND USES THEREOF” (Colorado School of Mines, priority 2014, published 2015).

The nature of this experiment: In vitro MRI relaxivity of gold/Gd nanoparticles and clinical contrast agents. From the text:
In vitro MRI of Gadolinium Nanoparticles and Polymer Modified Gadolinium Nanoparticles. In order to provide information about the clinical imaging viability of the polymer modified gold/Gd nanoparticles as a positive contrast agent, in vitro MRI was employed to determine relaxation properties of the unmodified and polymer modified gold/Gd nanoparticles. Table 1 compares the MRI longitudinal and transverse relaxivities, r1 and r2, respectively, of PNIPAM-modified gold/Gd nanoparticles and gold/Gd unmodified nanoparticles to the clinically employed contrasts agents, gadopentetate dimeglumine (Magnevist®) and gadobenate dimeglumine (Multihance®). […] By taking advantage of these properties, novel theragnostic polymer-modified gold/Gd nanoparticles could be produced and exploited as contrast agents for conventional T1 MR imaging.

As to `CNC[C@H](O)[C@@H](O)[C@H](O)[C@H](O)CO.CNC[C@H](O)[C@@H](O)[C@H](O)[C@H](O)CO.O=C([O-])CN(CCN(CC(=O)[O-])CC(=O)O)CCN(CC(=O)[O-])CC(=O)O.[Gd+3]` [Magnevist ®, gadopentetate dimeglumine], the r1 (MRI longitudinal relaxivity) came out at 6.95 mM⁻¹ s⁻¹.
As for `CNC[C@H](O)[C@@H](O)[C@H](O)[C@H](O)CO.CNC[C@H](O)[C@@H](O)[C@H](O)[C@H](O)CO.O=C([O-])CN(CCN(CC(=O)[O-])CC(=O)O)CCN(CC(=O)O)C(COCc1ccccc1)C(=O)[O-].[Gd+3]` (centres unmarked) [Multihance ®, gadobenate dimeglumine], the r1 (MRI longitudinal relaxivity) came to 17.7 mM⁻¹ s⁻¹.
